Measurements as given in patent US10914725B2, “Culture medium additive, culture medium composition, and method for culturing cells or tissue using same” (NISSAN CHEMICAL INDUSTRIES, LTD., priority 2015, dated 2021).

Assays:
Type in all cases: cell-based
[1] = system: Human liver cancer cell line HepG2; experiment: Evaluation of hepatotoxic substance by high content analysis (Experimental Example 9); conditions: for average cell number per sphere / average dead cell number in sphere / average sphere number per 20 mm^2 / projected area: 0.03 (w/v)% low-molecular agar medium, 2 days with flutamide
Procedure: (§1) By a method similar to the preparation method of medium composition of Experimental Example 1, a medium composition containing 10 (v/v) % FBS and 0.03 (w/v) % of low-molecular agar (“ultraagar Ena”, manufactured by InaFood Industry) in DMEM (manufactured by Wako Pure Chemical Industries, Ltd.) was prepared. Human liver cancer cell line HepG2 (manufactured by DS PHARMA BIOMEDICAL CO., LTD.) was suspended in the above-mentioned medium composition containing low-molecular agar at 11,000 cells/mL. The above-mentioned cell suspension was dispensed to the wells of a 96 well flat bottom ultra-low attachment surface microplate (manufactured by Corning Incorporated, #3474) at 90 μL per 1 well, and the plate was cultured in a standing state in a CO2 incubator (37° C., 5% CO2) for 3 days. On day 3 of culture, flutamide (manufactured by Sigma-Aldrich) was added by 10 μL per 1 well. Successively, the plate was further cultured in a standing state in a CO2 incubator (37° C., 5% CO2) for 2 days. As a comparison control, HepG2 cells were suspended in DMEM containing 10 (v/v) % FBS and the suspension was dispensed to a 96 well flat bottom adhesion surface microplate (manufactured by Corning Incorporated, #3585), and a similar operation was performed.
Then, a solution of […] of Hoechst 33342 (manufactured by Invitrogen) in DMEM (phenol red, L-glutamine free) (manufactured by Wako Pure Chemical Industries, Ltd.) was prepared, and added, at 10 μL per 1 well, to each culture after static culture for 5 days using the above-mentioned low-molecular agar-containing medium and comparison control, and the mixture was stood in a CO2 incubator (37° C., 5% CO2) for 45 min. Successively, a solution of 20 μg/mL Propidium Iodide (manufactured by BIOMOL) in DMEM (phenol red, L-glutamine free) (manufactured by Wako Pure Chemical Industries, Ltd.) was prepared and added at 10 μL per 1 well, and the culture medium was suspended. The plate was centrifuged at 1,500 rpm for 1 min, and high content analysis was performed by cell image analysis using a cell imaging apparatus (“ArrayScan VTI HCS Reader”, manufactured by Thermo Fisher Scientific). At that time, observation was performed with 20 fields of view per well using a ×10 objective lens, cell outline and cell nucleus were detected from Hoechst33342 fluorescence image, and dead cells were detected from propidium iodide fluorescence image. In addition, 50% inhibitory concentration (μM) of flutamide by high content analysis was calculated from the number of cells constituting the spheres, with the value without addition of flutamide as 0% sphere formation inhibitory rate.
(§2) The number of constituent cells of HepG2 cell spheres, sphere number, projected area of sphere (size) (μm^2) and the dead cell number in the sphere, obtained from the cell imaging analysis, are shown in Table 26. Furthermore, the relative cell number when the amount of luminescence without addition of the anticancer agent is 100 was determined from the measurement results of the surviving cell number by luminescence, using the intracellular ATP as an index, and shown in Table 27. In addition, the 50% inhibitory concentration (μM) of flutamide calculated from the amount of luminescence based on intracellular ATP and constituent cell number obtained by high content analysis are shown in Table 28.

[2] = system: Human liver cancer cell line HepG2; experiment: Evaluation of hepatotoxic substance by CellTiter-Glo cell survival assay (Experimental Example 9); conditions: for IC50: Homo sapiens, HepG2, cell survival assay by luminescence, read-out: 50% inhibitory concentration
Procedure: as §1
CellTiter-Glo Luminescent Cell Viability Assay (manufactured by Promega) (100 μL) was added to the low-molecular agar-containing culture medium and comparison control, the mixture was stood for 10 min at room temperature, and the amount of luminescence was measured by a microplate reader (“FlexStation 3”, manufactured by Molecular Devices) and according to the protocol recommended by Promega. The amount of luminescence of the medium alone was subtracted, whereby the number of viable cells was measured. In addition, 50% inhibitory concentration (μM) of flutamide by the amount of luminescence was calculated with the number of viable cells when flutamide was not added as 0% inhibition rate.
as §2

[3] = system: human ovarian cancer cell line SKOV3; experiment: Cell proliferation test by dispersing SKOV3 cells with growth factors (Experimental Example 4); conditions: 10 days
Procedure: By a method similar to the preparation method of medium composition in Analysis Example 1, a medium composition containing 10 (v/v) % FBS, and 0.03 (w/v) % of low-molecular agar in DMEM (manufactured by Wako Pure Chemical Industries, Ltd.) was prepared.
Then, human ovarian cancer cell line SKOV3 (manufactured by DS PHARMA BIOMEDICAL CO., LTD.) was suspended in the above-mentioned medium composition containing low-molecular agar at 37,000 cells/mL, and dispensed to the wells of a 96 well flat plane ultra-low attachment surface microplate (manufactured by Corning Incorporated, #3474) at 135 μL per 1 well. The plate was stood in a CO2 incubator (37° C., 5% CO2), and a growth factor was added the next day. A similar operation was performed with 10 (v/v) % FBS-containing DMEM free of low-molecular agar. As a growth factor, human heparin bindability epithelial cell growth factor (hHB-EGF) (manufactured by PeproTech, Inc.) at a final concentration of 30 ng/mL or 100 ng/mL, human epithelial cell growth factor (hEGF) (manufactured by PeproTech, Inc.) and human transforming growth factor α (hTGFα) (manufactured by PeproTech, Inc.) each at a final concentration of 1 ng/mL, 3 ng/mL or 10 ng/mL were added by 15 μL per 1 well.
Successively, the plate was cultured in a standing state in a CO2 incubator (37° C., 5% CO2) for 10 days. As a negative control, DMEM in an amount equal to that of a growth factor was added. CellTiter-Glo Luminescent Cell Viability Assay (manufactured by Promega) (100 μL) was added to the cell culture medium after culturing for 10 days, stood for 10 min at room temperature, and the amount of luminescence was measured by a microplate reader (“FlexStation 3”, manufactured by Molecular Devices) and according to the protocol recommended by Promega. The amount of luminescence of the medium composition alone was subtracted, whereby the number of viable cells was measured.
The relative cell number when the amount of luminescence of the negative control is 1 was determined from the amount of luminescence (corresponding to the number of SKOV3 cells) after culturing for 10 days after the addition of the growth factor, and shown in Table 11.

CC(C)C(=O)Nc1ccc([N+](=O)[O-])c(C(F)(F)F)c1 [flutamide]
IC50 ([1]; Homo sapiens, HepG2, high content analysis by cell image analysis, number of cells constituting the spheres, low-molecular agar-containing medium, read-out: 50% inhibitory concentration): 73.4 µM | average cell number per sphere ([1]; flutamide 0.8 μM): 7.977 | average dead cell number in sphere ([1]; flutamide 0.8 μM): 0.06 | average sphere number per 20 mm^2 ([1]; flutamide 0.8 μM): 190.7 | projected area ([1]; flutamide 0.8 μM): 1988 μm^2 | average cell number per sphere ([1]; flutamide 4 μM): 8.89 | average dead cell number in sphere ([1]; flutamide 4 μM): 0.037 | average sphere number per 20 mm^2 ([1]; flutamide 4 μM): 145.3 | projected area ([1]; flutamide 4 μM): 2180 μm^2 | average cell number per sphere ([1]; flutamide 20 μM): 9.263 | average dead cell number in sphere ([1]; flutamide 20 μM): 0.067 | average sphere number per 20 mm^2 ([1]; flutamide 20 μM): 129.7 | projected area ([1]; flutamide 20 μM): 2403 μm^2 | average cell number per sphere ([1]; flutamide 100 μM): 3.76 | average dead cell number in sphere ([1]; flutamide 100 μM): 0.007 | average sphere number per 20 mm^2 ([1]; flutamide 100 μM): 153.7 | projected area ([1]; flutamide 100 μM): 861 μm^2 | average cell number per sphere ([1]; flutamide 500 μM): 1.567 | average dead cell number in sphere ([1]; flutamide 500 μM): 1.163 | average sphere number per 20 mm^2 ([1]; flutamide 500 μM): 7.3 | projected area ([1]; flutamide 500 μM): 408 μm^2 | IC50 ([2]; comparison control (DMEM, 10% FBS, adhesion surface plate)): 51.7 µM | IC50 ([2]; low-molecular agar containing medium): 53.6 µM | relative cell number (no addition = 100) ([2]; flutamide 0.8 μM, comparison control (DMEM, 10% FBS, adhesion surface plate)): 100.2 | relative cell number (no addition = 100) ([2]; flutamide 0.8 μM, low-molecular agar-containing medium): 109.6 | relative cell number (no addition = 100) ([2]; flutamide 4 μM, comparison control (DMEM, 10% FBS, adhesion surface plate)): 109.6 | relative cell number (no addition = 100) ([2]; flutamide 4 μM, low-molecular agar-containing medium): 98.7 | relative cell number (no addition = 100) ([2]; flutamide 20 μM, comparison control (DMEM, 10% FBS, adhesion surface plate)): 93.5 | relative cell number (no addition = 100) ([2]; flutamide 20 μM, low-molecular agar-containing medium): 89.8 | relative cell number (no addition = 100) ([2]; flutamide 100 μM, comparison control (DMEM, 10% FBS, adhesion surface plate)): 22.5 | relative cell number (no addition = 100) ([2]; flutamide 100 μM, low-molecular agar-containing medium): 22.4 | relative cell number (no addition = 100) ([2]; flutamide 500 μM, comparison control (DMEM, 10% FBS, adhesion surface plate)): 15.4 | relative cell number (no addition = 100) ([2]; flutamide 500 μM, low-molecular agar-containing medium): 8.1

hTGFα: human transforming growth factor α (PeproTech)
relative cell number (negative control = 1) ([3]; growth factor 1 ng/mL, low-molecular agar 0 (w/v)%): 1.448 | relative cell number (negative control = 1) ([3]; growth factor 1 ng/mL, low-molecular agar 0.03 (w/v)%): 1.371 | relative cell number (negative control = 1) ([3]; growth factor 3 ng/mL, low-molecular agar 0 (w/v)%): 1.445 | relative cell number (negative control = 1) ([3]; growth factor 3 ng/mL, low-molecular agar 0.03 (w/v)%): 1.916 | relative cell number (negative control = 1) ([3]; growth factor 10 ng/mL, low-molecular agar 0 (w/v)%): 1.512 | relative cell number (negative control = 1) ([3]; growth factor 10 ng/mL, low-molecular agar 0.03 (w/v)%): 2.167
